This is an account of results in patent US8975397B2, “Solid forms” (Hoffmann-La Roche Inc., priority 2011, dated 2015).

Series [1] can be described thus: Thermodynamic stability of polymorphs. The series is classed as physicochemical. An excerpt:
The term “monotropy” denotes the relationship between two or more crystal forms of the same substance in which the rank order of thermodynamic stabilities of the polymorphs is retained at all temperatures below the melting point.

A short description of series [2]: Temperature Controlled XRPD / heating: solid form change. It is filed as physicochemical. The conditions noted are these: for solid form changes at elevated temperature: Temperature Controlled XRPD. Here is the method:
Temperature Controlled XRPD analyses of Form B show a phase transition to Form A at elevated temperature. In the temperature range 105-135° C. only Form A is present. In the temperature range of 65-95° C. an intermediate state is observed that is characterized by significant changes in peak positions.

A short description of series [3]: Hygroscopicity (European Pharmacopoeia classification). The series is classed as physicochemical. The following applies: for hygroscopicity: mass increase 0% rH to 90% rH. The source says: The term “hygroscopicity” describes the ability of a solid material to adsorb moisture. The hygroscopicity of a given API is characterized [European Pharmacopoeia—6th Edition (2008), Chapter 5.11) by the increase in mass when the relative humidity is raised from 0% rH to 90% rH: • non-hygroscopic: weight increase Δm<0.2%; • slightly hygroscopic: weight increase 0.2%≦Δm<2.0%; • hygroscopic: weight increase 2.0%≦Δm<15.0%; • very hygroscopic: weight increase Δm≧15.0%; • deliquescent: sufficient water is adsorbed to form a liquid.

A short description of series [4]: Solid form stability towards humidity and water (storage, Humidity Controlled XRPD). The following applies: for relative humidity at which Form B dehydrates into Form E: storage / Humidity Controlled XRPD, monohydrate; for phase change upon storage at 100% rH: ambient temperature (Form C: e.g. 30 days).
Protocol: Humidity Controlled XRPD analyses were performed in reflection geometry with a Siemens D5000 Diffractometer (Cu radiation source, NiK beta filter, Scintillation detector, angular range 3° to 42° 2Theta, approximately 180 minutes total measurement time per humidity level). The diffractometer is equipped with an MR1 (Materials Research Instruments) humidity chamber. The humidity within the chamber is adjusted with an ANSYCO humidity controller (SYCOS H-HOT).
50 mg of Form B was subjected to dehydration/hydration cycles.
Series [5] can be described thus: In vitro dissolution in miniaturized system (SGF, FeSSIF). The series is classed as physicochemical. The conditions noted are these: comparison with Form B. The procedure:
FIG. 21 illustrates the mean in vitro dissolution profiles in SGF. Mean in vitro dissolution profiles of micronized powders of Form A (∘), Form B (▾), Form C (▪) and γ-CD inclusion complex (Δ) in SGF at room temperature. Measurements were performed in triplicate (n=3).
FIG. 22 illustrates the mean in vitro dissolution profiles in FeSSIF. Mean in vitro dissolution profiles of micronized powders of Form A (∘), Form B (▾), Form C (▪) and γ-CD inclusion complex (Δ) in FeSSIF at room temperature. Measurements were performed in triplicate (n=3).
The in vitro dissolution studies performed in this work were conducted in a miniaturized system with 100 mL dissolution medium per experiment. In comparison to the 1000 mL vessels of the conventional USP apparatus the experimental set-up that was used here was scaled-down and simplified (magnetic stirring instead of paddles, room temperature instead of 37° C.). […] Simulated gastric fluid (SGF) was prepared with 2 g/L NaCl and 1 g/L Triton® X-100 in 0.1 N HCl. The resulting measured pH of SGF was 1.2.
Oral absorption of a drug compound from a solid dosage form is dependent on dissolution rate and solubility. In the present work the in vitro dissolution of the γ-CD inclusion complex was compared to micronized powders of polymorph Form A, Form B and Form C. […]

The text on series [6]:
FIG. 20 illustrates the phase solubility diagram of (1,1-dioxo-1λ^6-thiomorpholin-4-yl)-{6-[3-(4-fluoro-phenyl)-5-methyl-isoxazol-4-ylmethoxy]-pyridin-3-yl}-methanone and γ-CD. The API solubility is shown in [μg/mL].
Phase solubility diagrams are used to characterize complex formation between two compounds and represent the solubility of the API as a function of the cyclodextrin concentration. […] Anal. Chem. Instrum. (1965) 4:117-212] and Brewster [M E. Brewster et al. Adv. Drug Delivery Rev. (2007) 59:645-666] (FIG. 20).
Anal. Chem. Instrum. (1965) 4:117-212]:
[formula] […] The binding constant (K) is a measure of the affinity of the API to enter the relatively apolar cavity of the CD.

Series [7] in a line: Biopharmaceutical classification system (BCS). It is filed as physicochemical. An excerpt: The compound of formula (I), its manufacture, its pharmacological activity as inverse agonists of the GABA A α5 receptor, and its use for the treatment, prevention and/or delay of progression of various central nervous system (CNS) conditions have been described in WO 2009/071476. […] Res. (1995) 12:413-420].

[8] abbreviates: Temperature Controlled XRPD of Form B.

≈ marks a conversion by molar mass, not a printed value. Entries after “also recorded” stand apart in the source; their conditions may differ. Read-outs that look alike come from different tables or passages of the source. Where only a bound is given, the exact number is not on record here.

Turning to `Cc1onc(-c2ccc(F)cc2)c1COc1ccc(C(=O)N2CCS(=O)(=O)CC2)cn1` [Form A, (1,1-dioxo-1λ^6-thiomorpholin-4-yl)-{6-[3-(4-fluoro-phenyl)-5-methyl-isoxazol-4-ylmethoxy]-pyridin-3-yl}-methanone], the results for the “thermodynamic stability of the polymorph” value in series [1] and in series [1] (listed as form A) were “metastable” and “only metastable”, respectively. In addition, in series [2], the “solid form changes at elevated temperature” value is listed as “do not show solid form changes”.

In the case of `Cc1onc(-c2ccc(F)cc2)c1COc1ccc(C(=O)N2CCS(=O)(=O)CC2)cn1` [Form B, (1,1-dioxo-1λ^6-thiomorpholin-4-yl)-{6-[3-(4-fluoro-phenyl)-5-methyl-isoxazol-4-ylmethoxy]-pyridin-3-yl}-methanone monohydrate], the hygroscopicity entry in series [3] (monohydrate) is listed as “hygroscopic (weight increase 2.0%≦Δm<15.0%)”. Also, the “temperature range in which an intermediate state is observed” value in series [2] (setting [8]) was 65-95 °C. Also, the “temperature range in which only Form A is present” value in series [2] (setting [8]) was 105-135 °C. Besides, in series [2] (heating), the “temperature of transformation into Form A upon heating” value was above 100 °C. For the same compound, in series [4] (e.g. at ambient conditions, compared to Form A), the “stability in the presence of humidity” value is “substantially increased as compared to Form A”. For the same compound, the “relative humidity at which Form B dehydrates into Form E” value in series [4] (listed as form B) is recorded as 0 % rH; in series [4] it was below 5 % rH.

As to `Cc1onc(-c2ccc(F)cc2)c1COc1ccc(C(=O)N2CCS(=O)(=O)CC2)cn1` [Form C, (1,1-dioxo-1λ^6-thiomorpholin-4-yl)-{6-[3-(4-fluoro-phenyl)-5-methyl-isoxazol-4-ylmethoxy]-pyridin-3-yl}-methanone], the “solubility in simulated gastric fluid (SGF)” value in series [5] is listed as “considerably improved as compared to Form B”. Besides, in series [3] (comparison), the “hygroscopicity compared to Form A” value is reported as “less hygroscopic than Form A”. The “thermodynamic stability of the polymorph” value in series [1] is on record as “more stable than Form A; also recorded: most stable polymorph overall”. Besides, in series [2], the “solid form changes at elevated temperature” value is “do not show solid form changes”. Also, the “phase change upon storage at 100% rH” value in series [4] is recorded as “does not induce this phase change”. Further, the “phase change in the presence of water” value in series [4] (suspended state) is reported as “transforms into Form B”.

Consider `Cc1onc(-c2ccc(F)cc2)c1COc1ccc(C(=O)N2CCS(=O)(=O)CC2)cn1` [Form E, (1,1-dioxo-1λ^6-thiomorpholin-4-yl)-{6-[3-(4-fluoro-phenyl)-5-methyl-isoxazol-4-ylmethoxy]-pyridin-3-yl}-methanone], for which, in series [4] (exposure to humidity), the “relative humidity at which Form E reconverts (rehydrates) into Form B” value is above 5 % rH.

As for `Cc1onc(-c2ccc(F)cc2)c1COc1ccc(C(=O)N2CCS(=O)(=O)CC2)cn1` [amorphous Form, (1,1-dioxo-1λ^6-thiomorpholin-4-yl)-{6-[3-(4-fluoro-phenyl)-5-methyl-isoxazol-4-ylmethoxy]-pyridin-3-yl}-methanone], the hygroscopicity entry in series [3] was “slightly hygroscopic (weight increase 0.2%≦Δm<2.0%)”. Besides, the “phase change upon storage at 100% rH” value in series [4] is recorded as “no phase transformation has been observed”.

In the case of `Cc1onc(-c2ccc(F)cc2)c1COc1ccc(C(=O)N2CCS(=O)(=O)CC2)cn1` [compound of formula (I), (1,1-Dioxo-1λ^6-thiomorpholin-4-yl)-{6-[3-(4-fluoro-phenyl)-5-methyl-isoxazol-4-ylmethoxy]-pyridin-3-yl}-methanone], the “phase solubility diagram type” value in series [6] is on record as “BS-type behavior”. For the same compound, in series [7] (BCS), the aqueous solubility result is “low” and the permeability entry is listed as “high”. Besides, in series [7] (biopharmaceutical classification system), the BCS class result is “BCS 2”.

Consider `OC[C@H]1O[C@@H]2O[C@H]3[C@H](O)[C@@H](O)[C@@H](O[C@H]4[C@H](O)[C@@H](O)[C@@H](O[C@H]5[C@H](O)[C@@H](O)[C@@H](O[C@H]6[C@H](O)[C@@H](O)[C@@H](O[C@H]7[C@H](O)[C@@H](O)[C@@H](O[C@H]8[C@H](O)[C@@H](O)[C@@H](O[C@H]9[C@H](O)[C@@H](O)[C@@H](O[C@H]1[C@H](O)[C@H]2O)O[C@@H]9CO)O[C@@H]8CO)O[C@@H]7CO)O[C@@H]6CO)O[C@@H]5CO)O[C@@H]4CO)O[C@@H]3CO` [γ-cyclodextrin], for which, in series [6], the “solubility limit in aqueous solution” value amounted to 150 mM (≈ 195 mg/mL).
